The test system of assay [1] is A375 (BRAF V600E) cell line. As to the kind of experiment: A375 P-ERK inhibition assay (AlphaScreen). Format: cell-based, human. The following applies: for IC50: Homo sapiens, A-375, A375_P-ERK. On the procedure: (§1) Phospho-ERK AlphaScreen® assay. To determine the effects of compound treatment upon phosphorylation of ERK1/2, cells were plated in a 96-well dish and treated with an 8-point titration of compound for one hour at 37° C. before lysis. To detect pERK, cell lysates were incubated with streptavidin-coated AlphaScreen® donor beads, anti-mouse IgG AlphaScreen® acceptor beads, a biotinylated anti-ERK1/2 rabbit antibody, and a mouse antibody that recognizes ERK1/2 only when it is phosphorylated on Thr202 and Tyr204. The biotinylated ERK1/2 antibody binds to both the streptavidin-coated AlphaScreen® donor beads and to ERK1/2 (regardless of its phosphorylation state), and the phospho-ERK1/2 antibody binds to the acceptor beads and to ERK1/2 that is phosphorylated at Thr202/Tyr204. An increase in ERK1/2 phosphorylation at Thr202/Tyr204 brings the donor and acceptor AlphaScreen® beads into close proximity, generating a signal that can be quantified on an EnVision reader (Perkin Elmer).

The next assay deals with T1, BRAF V600E (Homo sapiens, UniProt P15056, V600E).
T1 construct: purchased Upstate Biotechnology
T1 sequence (P15056 whole entry V600E): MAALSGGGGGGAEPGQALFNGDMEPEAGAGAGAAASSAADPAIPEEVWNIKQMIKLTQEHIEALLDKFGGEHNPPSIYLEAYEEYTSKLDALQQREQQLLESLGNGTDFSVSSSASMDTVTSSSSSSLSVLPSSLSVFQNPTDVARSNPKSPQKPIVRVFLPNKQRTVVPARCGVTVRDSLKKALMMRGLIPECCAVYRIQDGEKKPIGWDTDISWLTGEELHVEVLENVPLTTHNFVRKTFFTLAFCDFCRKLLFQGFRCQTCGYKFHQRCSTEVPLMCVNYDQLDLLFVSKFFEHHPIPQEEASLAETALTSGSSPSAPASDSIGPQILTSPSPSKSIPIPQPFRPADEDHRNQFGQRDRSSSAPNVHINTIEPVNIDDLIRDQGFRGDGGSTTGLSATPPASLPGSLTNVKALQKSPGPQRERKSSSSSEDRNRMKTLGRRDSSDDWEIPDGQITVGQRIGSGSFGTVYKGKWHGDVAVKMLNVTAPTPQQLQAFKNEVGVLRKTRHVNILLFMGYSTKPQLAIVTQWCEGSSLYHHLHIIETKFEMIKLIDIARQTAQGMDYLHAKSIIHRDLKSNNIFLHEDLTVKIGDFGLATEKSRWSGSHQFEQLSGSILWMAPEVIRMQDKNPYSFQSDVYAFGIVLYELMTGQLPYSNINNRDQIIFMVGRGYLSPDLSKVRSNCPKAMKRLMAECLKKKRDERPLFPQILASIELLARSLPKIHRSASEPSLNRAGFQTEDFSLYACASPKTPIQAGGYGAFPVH
As to the kind of experiment: BRAF V600E biochemical kinase activity assay (AlphaScreen, biotin-MEK1 substrate). The following applies: BRAF V600E biochemical inhibitory activity. As for the experimental part: Compounds to be tested are diluted in dimethyl sulfoxide to a concentration of 0.1 mM. These are serially diluted 15 μL into 30 μL of dimethyl sulfoxide seven times in 96 well plates for a total of 8 dilution points, and for each dilution point 1 μL is added to a well of an assay plate. […] The reaction is started with addition of 10 μL of 200 μM ATP (i.e. final 100 μM ATP). After incubation of the kinase reaction for 45 minutes at room temperature, 5 μL/well of Stop Solution is added (25 mM Hepes pH 7.5, 100 mM EDTA, 0.01% BSA with donor beads (Streptavidin coated beads, Perkin Elmer), acceptor beads (Protein A coated, Perkin Elmer), and anti-phosphor MEK1/2 antibody (CellSignal), each at final concentration 10 μg/mL). The plates are incubated for 3 hours at room temperature and read on Envision reader (Perkin Elmer). Phosphorylation of Mek1 results in binding of the anti-phosphor-MEK1/2antibody and association of the donor and acceptor beads such that signal correlates with kinase activity. The signal versus compound concentration is used to determine the IC50.
The in vitro RAF kinase activities were determined by measuring phosphorylation of a biotinylated substrate peptide as described previously (Tsai, J. et al. Proc Natl Acad Sci USA 105, 3041-3046 (2008)). Compounds of formula (I), e.g., compound A, was also tested against a panel of 287 kinases at concentrations of 1 μM in duplicate. Kinases inhibited by over 50% were followed up by IC50 determination. The 287 kinases represent all major branches of the kinome phylogenetic tree. The inhibition screen of 287 kinases was carried out under contract as complementary panels at Invitrogen (Life Technologies, Wis., USA) SelectScreen™ profiling service, DiscoverX (CA, USA) KINOMEScan™ service, and Reaction Biology Corporation (PA, USA) Kinase HotSpot℠ service.
For orientation: In Alpha technology, singlet oxygen from a donor bead excites a nearby acceptor bead.

The test system of another assay is B9 (HRAS Q61L) cell line. Kind of assay: B9 P-ERK cell activation assay (AlphaScreen). Format: cell-based, mouse. The following applies: for EC50: Mus musculus, P-ERK cell activation, B9, numeric bounds, read-out: Cell activity (EC50 μM) B9_pERK. On the procedure:
(§2) B9 is a squamous cell carcinoma cell line expressing activated HRAS that was isolated from a DMBA/TPA-induced mouse model of skin carcinogenesis (Stoler, et al. The Journal of Cell Biology, 1993, 122(5), 1103-17). IPC-298 is a human melanoma cell line that expresses activated NRAS (Aubert, et al. International Journal of Cancer, 1993, 54(5), 784-92). To determine whether compounds induce phosphorylated ERK and MEK, cells are plated in a 96-well dish and treated with an 8-point titration of compound for one hour at 37° C. The media is then removed and the cells are incubated with lysis buffer containing protease and phosphatase inhibitors. Phosphorylated ERK and MEK in the resulting lysates is detected using AlphaScreen™ technology. To detect phosphorylated ERK, cell lysates are incubated with streptavidin-coated donor beads, anti-mouse IgG acceptor beads, a biotinylated anti-ERK1/2 rabbit antibody, and a mouse antibody that recognizes ERK1/2 only when it is phosphorylated on Thr202 and Tyr204. The biotinylated ERK1/2 antibody will bind to both the streptavidin-coated donor beads and to ERK1/2 (regardless of its phosphorylation state), and the phospho-ERK1/2 antibody will bind to the acceptor beads and to ERK1/2 that is phosphorylated at Thr202/Tyr204. Excitation of the beads with laser light at 680 nm produces singlet oxygen, which is rapidly quenched unless the beads are in close proximity. When ERK is phosphorylated, both antibodies can bind the same protein, bringing the donor and acceptor beads into close proximity, producing a signal that can be measured at 580 nm. MEK phosphorylation is detected using a similar approach, only with antibodies directed against total MEK1/2 and MEK1/2 that is phosphorylated at Ser217 and Ser221.
as §1

In assay [2] the test system is IPC-298 (NRAS Q61L) cell line. Kind of assay: IPC-298 P-ERK cell activation assay (AlphaScreen). As to conditions: for EC50: Homo sapiens, P-ERK cell activation, IPC-298, read-out: Cell activity (EC50 μM) IPC-298_P-ERK. Format: cell-based, human. On the procedure: as §2, §1

The structures appear in SMILES notation. “Also recorded” adds a separate entry of the source. Where two headings read alike, the source gives them in different places.

For the compound `CCCC(C)S(=O)(=O)Nc1ccc(F)c(C(=O)c2c[nH]c3ncnc(NCC4CC4)c23)c1F` (stereo not drawn) [P-2051, N-[3-[4-(cyclopropylmethylamino)-7H-pyrrolo[2,3-d]pyrimidine-5-carbonyl]-2,4-difluoro-phenyl]pentane-2-sulfonamide], the IC50 (in assay [1]; at BRAF V600E) was 0.0001 to 1 µM throughout.
On to `O=C(c1c(F)ccc(NS(=O)(=O)C2CCCC2)c1F)c1c[nH]c2ncncc12` [P-2028, N-[2,4-difluoro-3-(7H-pyrrolo[2,3-d]pyrimidine-5-carbonyl)phenyl]cyclopentanesulfonamide], for which the EC50 (with B9 (HRAS Q61L) cell line; in assay [2] (numeric bounds)) was greater than 10 µM in each case. In addition, the IC50 (in general, the concentration needed to halve the response being measured) in assay [1] was greater than 10 µM.
For `Cc1nc2c(-c3sc(C(C)(C)C)nc3-c3cccc(NS(=O)(=O)N4CCCC4)c3F)ccnc2[nH]1` [P-2126, N-[3-[2-tert-butyl-5-(2-methyl-3H-imidazo[4,5-b]pyridin-7-yl)thiazol-4-yl]-2-fluoro-phenyl]pyrrolidine-1-sulfonamide], in the assay on B9 (HRAS Q61L) cell line, the concentration for a half-maximal effect (EC50) (usually the concentration giving half of the maximal effect) is greater than 10 µM. Besides, the IC50 (in assay [1]; against BRAF V600E) was 0.0001 to 1 µM each time.
In the case of `CC(C)S(=O)(=O)Nc1ccc(F)c(C(=O)c2c[nH]c3ncnc(NCC4CC4)c23)c1F` [P-2047, N-[3-[4-(cyclopropylmethylamino)-7H-pyrrolo[2,3-d]pyrimidine-5-carbonyl]-2,4-difluoro-phenyl]propane-2-sulfonamide], the IC50 (in assay [1]; against BRAF V600E) was 0.0001 to 1 µM throughout.
In the case of `CC1(C)OCC(CNc2ncnc3[nH]cc(C(=O)c4cccc(NS(=O)(=O)N5CCCC5)c4F)c23)O1` (stereo not drawn) [P-2095, N-[3-[4-[(2,2-dimethyl-1,3-dioxolan-4-yl)methylamino]-7H-pyrrolo[2,3-d]pyrimidine-5-carbonyl]-2-fluoro-phenyl]pyrrolidine-1-sulfonamide], the EC50 (in the assay with B9 (HRAS Q61L) cell line; in assay [2] (numeric bounds)) was greater than 10 µM each time. Also, the concentration for half-maximal inhibition (IC50) in assay [1] lay within 0.0001 to 1 µM.
Take `CCN(C)S(=O)(=O)Nc1cc(Cl)cc(-c2cn(C(C)C)nc2-c2ccnc(NC[C@H](C)NC(=O)OC)n2)c1F` [P-2164, methyl N-[(1S)-2-[[4-[4-[5-chloro-3-[[ethyl(methyl)sulfamoyl]amino]-2-fluoro-phenyl]-1-isopropyl-pyrazol-3-yl]pyrimidin-2-yl]amino]-1-methyl-ethyl]carbamate]: the EC50 in assay [2] (numeric bounds) was greater than 10 µM. Also, the IC50 (in assay [1]; at BRAF V600E) was 0.0001 to 1 µM throughout.
Consider `COC(=O)N[C@@H](C)CNc1nccc(-c2nn(C(C)C)cc2-c2cc(Cl)cc(NS(=O)(=O)N3CCCC3)c2F)n1` [P-2160, methyl N-[(1S)-2-[[4-[4-[5-chloro-2-fluoro-3-(pyrrolidin-1-ylsulfonylamino)phenyl]-1-isopropyl-pyrazol-3-yl]pyrimidin-2-yl]amino]-1-methyl-ethyl]carbamate], for which, in assay [2] (class symbols), the concentration for a half-maximal effect (EC50) fell in the range of 0.0001 to 1 µM. Further, the 50% inhibitory concentration (IC50) (in assay [1]; on BRAF V600E) was 0.0001 to 1 µM throughout.
`CN(C)S(=O)(=O)Nc1cc(Cl)cc(C(=O)c2c[nH]c3ncc(-c4cnc(C5CC5)nc4)cc23)c1F` [P-2175, 3-[5-chloro-3-(dimethylsulfamoylamino)-2-fluoro-benzoyl]-5-(2-cyclopropylpyrimidin-5-yl)-1H-pyrrolo[2,3-b]pyridine]: in assay [2] (numeric bounds), the EC50 was greater than 10 µM. Besides, the half-maximal inhibitory concentration (IC50) (in assay [1]; against BRAF V600E) was 0.0001 to 1 µM each time.
On to `CN(C)S(=O)(=O)Nc1ccc(F)c(C(=O)c2c[nH]c3ncnc(NCC4CC4)c23)c1F` [P-2048, 4-(cyclopropylmethylamino)-5-[3-(dimethylsulfamoylamino)-2,6-difluoro-benzoyl]-7H-pyrrolo[2,3-d]pyrimidine], for which the EC50 in assay [2] (numeric bounds) was greater than 10 µM. Also, the IC50 (in assay [1]; against BRAF V600E) was 0.0001 to 1 µM in each case.
Turning to `CCN(C)S(=O)(=O)Nc1cccc(-c2nc(C(C)(C)C)sc2-c2ccnc(N)n2)c1F` [P-0352, 5-(2-aminopyrimidin-4-yl)-2-tert-butyl-4-[3-[[ethyl(methyl)sulfamoyl]amino]-2-fluoro-phenyl]thiazole], the pERK activation entry in the assay with B9 (HRAS Q61L) cell line (RAS mutant cell line B9, one hour treatment) is listed as “significantly reduced pERK activation; also recorded: markedly reduced pERK activation”; in assay [2] (RAS mutant cell line IPC-298, one hour treatment) it was “significantly reduced pERK activation; also recorded: markedly reduced pERK activation”. Further, the pERK inhibition entry in assay [1] (BRAF V600E cell line A375) was “preserving the potent inhibitory activity; also recorded: moderate decrease in pERK IC50”.
Turning to `O=C(c1c(F)ccc(NS(=O)(=O)N2CCCC2)c1F)c1c[nH]c2ncncc12` [P-2029, N-[2,4-difluoro-3-(7H-pyrrolo[2,3-d]pyrimidine-5-carbonyl)phenyl]pyrrolidine-1-sulfonamide], the EC50 (with B9 (HRAS Q61L) cell line; in assay [2] (numeric bounds)) was greater than 10 µM throughout. The same compound came in with a half-maximal inhibitory concentration (IC50) in assay [1] of 0.0001 to 1 µM.
For `COC(=O)N[C@@H](C)CNc1nccc(-c2sc(-c3ccccc3)nc2-c2cccc(NS(=O)(=O)N3CC[C@@H](F)C3)c2F)n1` [P-2152, methyl N-[(1S)-2-[[4-[4-[2-fluoro-3-[[(3R)-3-fluoropyrrolidin-1-yl]sulfonylamino]phenyl]-2-phenyl-thiazol-5-yl]pyrimidin-2-yl]amino]-1-methyl-ethyl]carbamate], the EC50 in assay [2] (class symbols) lay within 0.0001 to 1 µM. The IC50 (in assay [1]; against BRAF V600E) was 0.0001 to 1 µM each time.
On to `O=C(c1cccc(NS(=O)(=O)N2CCCC2)c1F)c1c[nH]c2ncnc(NCC(F)(F)F)c12` [P-2077, N-[2-fluoro-3-[4-(2,2,2-trifluoroethylamino)-7H-pyrrolo[2,3-d]pyrimidine-5-carbonyl]phenyl]pyrrolidine-1-sulfonamide], for which the EC50 in assay [2] (numeric bounds) was greater than 10 µM. The concentration for half-maximal inhibition (IC50) (in assay [1]; against BRAF V600E) was 0.0001 to 1 µM throughout.
`CC(C)S(=O)(=O)Nc1ccc(F)c(C(=O)c2c[nH]c3nccc(Cl)c23)c1F` [P-2013, N-[3-(4-chloro-1H-pyrrolo[2,3-b]pyridine-3-carbonyl)-2,4-difluoro-phenyl]propane-2-sulfonamide]: the IC50 (in assay [1]; on BRAF V600E) was 0.0001 to 1 µM in each case.
With `O=C(c1cccc(NS(=O)(=O)N2CCCC2)c1F)c1c[nH]c2ncnc(NCCC(F)(F)F)c12` [P-2112, N-[2-fluoro-3-[4-(3,3,3-trifluoropropylamino)-7H-pyrrolo[2,3-d]pyrimidine-5-carbonyl]phenyl]pyrrolidine-1-sulfonamide], the EC50 in assay [2] (numeric bounds) is greater than 10 µM. The IC50 (in assay [1]; against BRAF V600E) was 0.0001 to 1 µM in each case.

Values taken from US10421761B2, “Compounds for kinase modulation, and indications therefor” (Plexxikon Inc., priority 2013, dated 2019).
